# Experimental data as given in US9051339B2, “Sulfur-containing bicyclic compound” (Astellas Pharma Inc., priority 2013, dated 2015).
# pEC50: −log10 of the molar value. Where a name gives a salt, the structure may show the parent alone.
# Target: T1, GABAB receptor (Mus musculus, UniProt Q80T41+Q9WV18)
# T1 construct: a mouse brain cortex membrane (4 μg); tissue Japan SLC, Inc. (ddY mice); host or cells: mouse brain cortex membrane
# Assay: [35S]GTPγS binding test for PAM action, mouse brain cortical membrane
# Format: biochemical
# Conditions: 100 μM GABA = 100%; for pEC50: concentration raising reaction rate from 20% with 0.3 μM GABA to 50%, mouse brain cortex membrane, read-out: Potency (PAM Potency of GABAB); for Emax: read-out: Efficacy (PAM Efficacy of GABAB)
# Method: The function of the GABAB receptor of the compound of the present invention was evaluated using a [^35S] GTPγS binding test. This method is used for the detection of the PAM action of the compound on the GABAB receptor (Journal of Pharmacology and Experimental Therapeutics, 2003, vol. 307(1), p. 322-330; and Molecular Pharmacology, 2001, vol. 60(5), p. 963-971).
# The mouse brain cortical membrane was prepared with reference to a method for preparing a rat brain membrane (European Journal of Pharmacology, 1990, vol. 187 (1), p. 27-38).
# The cortex (about 30 g) was cut out of the brains of 90 ddY mice (Japan SLC, Inc.). An A buffer was added to the cortex (cortex/A buffer=about 1:3 (wt/vol)), and homogenized with a glass Teflon-lined homogenizer (Teflon: registered trademark) on ice. The homogenate was centrifuged (750 g, 10 min, 4° C.) and a supernatant was then obtained. An A buffer (90 mL) was added to pellets and homogenized on ice, and a supernatant (750 g, 10 min, 4° C.) was then obtained. By repeating this operation, the supernatant was collected.
# The supernatant was centrifuged (18000 g, 15 min, 4° C.). Ultrapure water (54 mL) was added to the pellets, left to stand for 30 min on ice, and then centrifuged (39000 g, 20 min, 4° C.). The pellets were suspended in a KH buffer (54 mL), repeatedly frozen and thawed, and centrifuged (18000 g, 15 min) at 4° C. The buffer was added to the pellets and then frozen and thawed, and this operation was repeated until the centrifugation. By a Bradford method using a protein assay (Protein assay CBB solution; Nacalai Tesque, Inc.), a KH buffer suspension of the pellet was prepared at a protein concentration of 10 mg/mL.
# The PAM action of the GABAB receptor in the mouse brain cortex of a test drug was evaluated. To each of wells of a 96-well microplate, a test drug diluted with a B buffer at each concentration (3 nM to 30 μM), a mouse brain cortex membrane (4 μg), [^35S] GTPγS (final concentration of 0.34 nM, Muromachi Yakuhin Co., Ltd.; Institute of Isotopes Co., Ltd.), GABA (final concentration of 0.3 μM; Sigma) were added in this order, followed by standing at room temperature for 1 hour. With a harvester (Filtermate, Perkin-Elmer, Inc.), the suspension was suction-filtered through a glass filter (UniFilter 96-well GF/B filter plates, Perkin-Elmer, Inc.). The glass filter was washed with a C buffer that had been ice-cooled. After drying the glass filter, a liquid scintillation cocktail (50 μL, MicroScinti-PS; PerkinElmer, Inc.) was added to each well. The amount of [^35S] GTPγS bound to the membrane was measured on a plate reader (TopCount, PerkinElmer, Inc.).
# The maximum reaction rate of 100 μM GABA was taken as 100%. […] At a time when the test drug was not added, the concentration of the test drug that increased the reaction rate from 20% with 0.3 μM GABA to 50% was taken as a PAM Potency (μM) of the GABAB of the test drug. In the presence of 0.3 μM GABA, the maximum reaction rate of the effect on the GABAB receptor when the test drug was administered up to maximum 30 μM was taken as a PAM Efficacy (%) of the GABAB of the test drug.
# The Potency and Efficacy of several representative Example Compounds of the present invention are shown in Table below (In the Table, Ex represents Example Compound No. The “Potency” represents the PAM Potency of GABAB of the test drug, and the “Efficacy” represents PAM Efficacy (%) of GABAB of the test drug. These shall apply hereinafter).
# [1] = maximum reaction rate in presence of 0.3 μM GABA, test drug up to 30 μM
# T1 sequence (Q9WV18 20-960): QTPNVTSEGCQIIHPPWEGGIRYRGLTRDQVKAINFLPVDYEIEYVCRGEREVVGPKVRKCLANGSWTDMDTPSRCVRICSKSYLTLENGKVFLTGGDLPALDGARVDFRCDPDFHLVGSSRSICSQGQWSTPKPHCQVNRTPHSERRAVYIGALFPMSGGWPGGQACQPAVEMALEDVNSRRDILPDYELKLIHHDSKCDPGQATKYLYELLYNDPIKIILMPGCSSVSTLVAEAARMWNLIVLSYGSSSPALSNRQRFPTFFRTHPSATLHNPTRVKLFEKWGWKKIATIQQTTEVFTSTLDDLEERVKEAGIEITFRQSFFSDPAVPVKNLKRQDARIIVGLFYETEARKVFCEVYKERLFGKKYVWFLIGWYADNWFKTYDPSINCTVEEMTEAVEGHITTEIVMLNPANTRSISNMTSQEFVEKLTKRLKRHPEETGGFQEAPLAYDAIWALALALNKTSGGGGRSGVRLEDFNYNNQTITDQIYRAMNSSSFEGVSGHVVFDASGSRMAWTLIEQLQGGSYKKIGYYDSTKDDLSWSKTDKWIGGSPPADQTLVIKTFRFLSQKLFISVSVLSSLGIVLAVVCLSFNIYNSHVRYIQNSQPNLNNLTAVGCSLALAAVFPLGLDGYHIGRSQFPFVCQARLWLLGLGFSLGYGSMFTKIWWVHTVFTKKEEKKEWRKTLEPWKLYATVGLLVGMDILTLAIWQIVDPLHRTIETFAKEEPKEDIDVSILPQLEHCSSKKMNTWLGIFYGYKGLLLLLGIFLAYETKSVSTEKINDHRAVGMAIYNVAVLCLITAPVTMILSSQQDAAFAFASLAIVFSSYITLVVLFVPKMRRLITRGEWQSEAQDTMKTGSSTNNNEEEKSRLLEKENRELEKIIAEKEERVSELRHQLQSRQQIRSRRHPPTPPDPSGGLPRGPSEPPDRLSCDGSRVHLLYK
# T1 sequence (Q80T41 41-940): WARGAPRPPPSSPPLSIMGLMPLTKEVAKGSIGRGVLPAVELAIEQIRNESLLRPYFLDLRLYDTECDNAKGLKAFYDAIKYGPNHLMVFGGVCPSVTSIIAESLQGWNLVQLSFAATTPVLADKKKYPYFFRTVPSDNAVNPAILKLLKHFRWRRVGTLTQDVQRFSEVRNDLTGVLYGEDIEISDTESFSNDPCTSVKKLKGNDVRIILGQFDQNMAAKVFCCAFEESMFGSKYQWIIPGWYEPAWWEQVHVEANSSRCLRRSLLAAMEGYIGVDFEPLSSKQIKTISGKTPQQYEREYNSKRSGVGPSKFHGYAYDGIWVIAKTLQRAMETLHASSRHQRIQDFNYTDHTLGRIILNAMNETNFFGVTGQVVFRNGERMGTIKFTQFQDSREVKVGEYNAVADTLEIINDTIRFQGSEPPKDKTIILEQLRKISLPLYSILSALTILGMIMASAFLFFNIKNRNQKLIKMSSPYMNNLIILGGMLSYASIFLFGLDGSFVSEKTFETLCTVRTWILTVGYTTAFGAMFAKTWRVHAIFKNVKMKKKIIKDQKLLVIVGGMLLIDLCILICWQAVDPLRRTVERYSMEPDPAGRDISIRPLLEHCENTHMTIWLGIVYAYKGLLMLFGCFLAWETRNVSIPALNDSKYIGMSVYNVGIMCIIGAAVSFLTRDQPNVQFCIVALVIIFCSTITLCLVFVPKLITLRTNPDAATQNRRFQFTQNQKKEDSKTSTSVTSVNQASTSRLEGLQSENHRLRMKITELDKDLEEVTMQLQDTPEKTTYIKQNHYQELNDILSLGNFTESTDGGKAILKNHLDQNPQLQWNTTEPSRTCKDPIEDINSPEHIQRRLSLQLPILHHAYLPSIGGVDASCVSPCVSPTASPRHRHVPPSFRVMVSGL
SMILES,pEC50,Emax [1] [%],Efficacy (PAM Efficacy of GABAB) [1] [%]
Cc1nc(CN2CCCC(C)(C)C2)c2cc(C3CCC(C)(C)CC3)sc2n1 [Ex45],6.36,134,–
Cc1nc(CN2CC[C@H](O)[C@@H](F)C2)c2cc(C3CCC(C)(C)CC3)sc2n1 [Ex144],6.51,182,–
CCC1(O)CCN(Cc2nc(C)nc3sc(C4CCC(C)(C)CC4)cc23)CC1 [Ex48],6.59,238,–
Cc1nc(CN2CCC(O)C(C)(C)C2)c2cc(C3CCC(C)(C)CC3)sc2n1 (stereo not drawn) [Ex146],7.00,258,–
Cc1nc(CN2CC[C@@H](O)[C@@H](O)C2)c2cc(C3CCC(C)(C)CC3)sc2n1 [Ex54],6.49,88,–
Cc1nc(CN2CCC(C)(O)CC2)c2cc(C3CCC(C)(C)CC3)sc2n1 [Ex47],6.92,240,–
"Cc1nc(CN2CC[C@@H](O)[C@H](O)C2)c2cc(C3CCC(C)(C)CC3)sc2n1 (single isomer, unassigned) [Ex31-1, trans-1-{[6-(4,4-dimethylcyclohexyl)-2-methylthieno[2,3-d]pyrimidin-4-yl]methyl}piperidine-3,4-diol]",6.74,–,191
Cc1nc(CN2CCC[C@H](O)C2)c2cc(C3CCC(C)(C)CC3)sc2n1 [Ex73],7.07,272,–
"Cc1nc(CN2CCN(C(=O)CO)CC2(C)C)c2cc(C3CCC(C)(C)CC3)sc2n1 [Ex155, 1-(4-{[6-(4,4-dimethylcyclohexyl)-2-methylthieno[2,3-d]pyrimidin-4-yl]methyl}-3,3-dimethylpiperazin-1-yl)-2-hydroxyethanone]",7.34,159,–
COCC1(O)CCN(Cc2nc(C)nc3sc(C4CCC(C)(C)CC4)cc23)CC1 [Ex50],6.27,222,–
Cc1nc(CN2CC[C@@H](O)[C@H](O)C2)c2cc(C3CCC(C)(C)CC3)sc2n1 [Ex5],6.62,176,–
Cc1nc(CN2CCN(C)CC2(C)C)c2cc(C3CCC(C)(C)CC3)sc2n1 [Ex151],6.92,168,–
Cc1nc(CN2CCC(O)CC2(C)C)c2cc(C3CCC(C)(C)CC3)sc2n1 (stereo not drawn) [Ex142],8.15,214,–
COC1(CO)CCN(Cc2nc(C)nc3sc(C4CCC(C)(C)CC4)cc23)CC1 [Ex46],6.74,188,–
Cc1nc(CN2CCOC[C@@H]2CO)c2cc(C3CCC(C)(C)CC3)sc2n1 [Ex102],6.40,127,–
"CC(=O)N1CCN(Cc2nc(C)nc3sc(C4CCC(C)(C)CC4)cc23)C(C)(C)C1 [Ex153, 1-(4-{[6-(4,4-dimethylcyclohexyl)-2-methylthieno[2,3-d]pyrimidin-4-yl]methyl}-3,3-dimethylpiperazin-1-yl)ethanone hydrochloride]",7.23,180,–
Cc1nc(CN2CCC(F)(F)CC2)c2cc(C3CCC(C)(C)CC3)sc2n1 [Ex55],6.60,175,–
"Cc1nc(CN2CCS(=O)(=O)CC2)c2cc(C3CCC4(CC3)CC4)sc2n1 [Ex108, 4-[(1,1-dioxidothiomorpholin-4-yl)methyl]-2-methyl-6-(spiro[2.5]octa-6-yl)thieno[2,3-d]pyrimidine]",6.70,176,–

SMILES,pEC50,Emax [1] [%],Efficacy (PAM Efficacy of GABAB) [1] [%]
Cc1nc(CN2CCC(C(F)F)CC2)c2cc(C3CCC(C)(C)CC3)sc2n1 [Ex61],6.62,160,–
Cc1nc(CN2C[C@@H](C)O[C@@H](C)C2)c2cc(C3CCC(C)(C)CC3)sc2n1 [Ex39],6.38,165,–
Cc1nc(CN2CCOC[C@H]2CO)c2cc(C3CCC(C)(C)CC3)sc2n1 [Ex101],6.42,134,–
Cc1nc(CN2CCC(O)(C(F)(F)F)CC2)c2cc(C3CCC(C)(C)CC3)sc2n1 [Ex12],6.64,377,–
"Cc1nc(CN2CCC(O)CC2)c2cc(C3CCC(C)(C)CC3)sc2n1 [Ex52, 1-{[6-(4,4-dimethylcyclohexyl)-2-methylthieno[2,3-d]pyrimidin-4-yl]methyl}piperidin-4-ol hydrochloride]",6.77,259,–
Cc1nc(CN2CCC(O)(CO)CC2)c2cc(C3CCC(C)(C)CC3)sc2n1 [Ex4],6.70,161,–
Cc1nc(CN2CCC[C@@H](O)C2)c2cc(C3CCC(C)(C)CC3)sc2n1 [Ex72],7.05,289,–
Cc1nc(CN2CC[C@@H](O)[C@](C)(O)C2)c2cc(C3CCC(C)(C)CC3)sc2n1 [Ex104],7.10,218,–
Cc1nc(CN2CC[C@@H](O)[C@@H](F)C2)c2cc(C3CCC(C)(C)CC3)sc2n1 [Ex143],5.92,182,–
Cc1nc(CN2CCC(O)C(CO)C2)c2cc(C3CCC(C)(C)CC3)sc2n1 (stereo not drawn) [Ex127],6.96,338,–
Cc1nc(CN2CCSCC2)c2cc(C3CCC(C)(C)CC3)sc2n1 [Ex74],6.72,244,–
Cc1nc(CN2CCC(C)(C)CC2)c2cc(C3CCC(C)(C)CC3)sc2n1 [Ex44],6.57,119,–
Cc1nc(CN2CCOCC2)c2cc(C3CCC(C)(C)CC3)sc2n1 [Ex132],6.82,218,–
Cc1nc(CN2CCOCC2(C)C)c2cc(C3CCC(C)(C)CC3)sc2n1 [Ex79],7.34,230,–
Cc1nc(CN2CCC3(CC2)CC3)c2cc(C3CCC(C)(C)CC3)sc2n1 [Ex43],6.59,118,–
Cc1nc(CN2CCOC(C)(C)C2)c2cc(C3CCC(C)(C)CC3)sc2n1 [Ex40],6.28,203,–
Cc1nc(CN2CCC(CO)(CO)CC2)c2cc(C3CCC(C)(C)CC3)sc2n1 [Ex7],6.62,139,–
Cc1nc(CN2CCC(O)C(F)C2)c2cc(C3CCC(C)(C)CC3)sc2n1 (stereo not drawn) [Ex51],6.82,249,–
